# Where a SMILES comes first, the peptide text is derived from it. Bridges are numbered along the chain shown (N, C = ends). [ ]: non-standard residue; d: D form. Cha = N[C@@H](CC1CCCCC1)C(=O)O; S5 = C=CCCC[C@](C)(N)C(=O)O
# What was measured:
# MDA-MB-231-RFP cells = test: Pulmonary metastasis model in mice; assay type: in vivo, BALB/c-nude mice; conditions: cells treated with 100 μM for 12 hours, intravenously injected, flow cytometry of lungs after two weeks
# Procedure: It was confirmed whether ND1-YL2 could inhibit cancer metastasis through mice model. MDA-MB-231-RFP cells expressing red fluorescent protein (RFP) were cultured in DMEM (Welgene) containing 10% FBS (Omega Scientific Inc.) under the conditions of 37° C. and 5% CO2. 5-week-old BALB/c-nude mice (OriententBio Inc.) were maintained in a sterile environment and had free access to food and water. All animal procedures were approved by the Organ Animal Care and Use Committee of POSTECH. For the pulmonary metastasis model, MDA-MB-231-RFP cells treated with DMSO or 100 μM of ND1-YL2 for 12 hours were intravenously injected at 10^6 cells per mouse, followed by […]. The lungs were harvested and prepared in a single cell suspension and filtered through a 100 μm cell strainer (Corning). It was further cultured for 2 minutes in ACK lysis buffer (Gibco). The samples were analyzed by LSR Fortessa (BD Biosciences). […] To visualize lung metastasis, lung sections were prepared and dyed with Haemotoxylin and Eosin (H&E) stain.
# SRC-1/ND1-YL2/UBR box = biological target: T1, SRC-1/ND1-YL2/UBR box (UniProt P19812+Q15788); test: SEC-MALS ternary complex formation; assay type: binding; conditions: SRC-1 alone 20 kDa, UBR box alone 12 kDa
# T1 construct: PAS-B domain of human SRC-1 (residues 257-385) tagged with His6; UBR box (residues 113-194) in the UBR1 E3 ubiquitin ligase of S. cerevisiae; His6 (cleaved yes); made in house; host or cells: E. coli BL21 (DE3) pLysS (SRC-1 PAS-B)
# T1 sequence (Q15788 257-385): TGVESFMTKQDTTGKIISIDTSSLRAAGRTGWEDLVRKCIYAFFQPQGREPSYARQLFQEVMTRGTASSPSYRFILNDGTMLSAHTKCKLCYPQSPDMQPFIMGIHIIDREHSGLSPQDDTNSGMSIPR
# T1 sequence (P19812 113-194): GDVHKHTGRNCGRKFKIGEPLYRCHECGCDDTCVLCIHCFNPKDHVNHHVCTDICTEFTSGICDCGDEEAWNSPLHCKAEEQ
# Procedure: An expression plasmid of the PAS-B domain of human SRC-1 (residues 257-385) tagged with His6 was provided by Professor John. A. Robinson. (ChemBioChem 2008, 9, 1318-1322). The plasmid was transformed into BL21 (DE3) pLysS cells, and the protein was cultured in Luria-Bertani broth medium and induced with 0.5 mM IPTG at 18° C. for 16 hours. Cell disruption was performed by ultrasonic treatment in a buffer (50 mM Tris-HCl pH 8.0, 200 mM NaCl and 1 mM TCEP), and insoluble materials were removed by centrifugation. HisTrap™ column (GE Healthcare, 17-5255-01) chromatography was performed on the buffer and 500 mM of imidazole was applied for elution. In order to remove the His6-tag, TEV protease was used and the cleaved samples were loaded in HisTrap™ as described above. The SRC-1 was further purified by size exclusion chromatography (HiLoad™ 16/600 Superdex 75 pg) in a final buffer of 20 mM Tris-HCl pH 7.5, 150 mM NaCl and 1 mM TCEP. […]
# The next step was to confirm whether ND1-YL2 could indeed form a ternary complex. […] Light scattering and differential refractive index data were collected and analyzed using ASTRA®V software (Wyatt Technology) (FIG. 12A). The individual molecules SRC-1 and UBR box had molecular masses of 20 and 12 kDa, respectively, and were detected to be 40 kDa in the presence of ND1-YL2, which is a result showing that a ternary complex was formed (FIG. 12A).
# MDA-MB-231 cells = test: Gap closure migration assay; assay type: cell-based, human; conditions: 20 μM, 72 hours
# Procedure: Based on the results that the SRC-1 degradation effectively affects the transcription mediated by SRC-1 (FIGS. 18A and 18B), it was predicted that ND1-YL2 would exert an inhibitory effect on downstream signaling pathways such as increased cancer cell migration and invasion. To test this, we first performed a gap closure migration assay using an invasive MDA-MB-231 cell line. MDA-MB-231 cells (70 μL of 4×10^5 cells/mL) were seeded in culture insert 2 wells (ibidi, 80209) pre-inserted into p-dishes (ibidi) under the conditions of 37° C. and 5% CO2. The culture insert 2 wells was gently removed with sterile tweezers. The cells were treated with DMSO, YL2 (20 […]), RLAA (20 μM) or ND1-YL2 (20 μM) in Opti-MEM medium for 72 hours. Images were obtained by a camera (Olympus) attached to an optical microscope. The cells were grown in the culture insert wells, and the inserts were removed to create intercellular gaps inside the wells. Subsequently, after treated with DMSO, YL2, RLAA peptide or ND1-YL2, the cells were cultured for 72 hours and the degree of cell migration was observed. The cell migration was quantified by analyzing the images of cells filling the gap.
# Colo205 = test: Cell viability assay; assay type: cell-based, human; conditions: Colo205, various concentrations, 48 hours
# Procedure: (§1) To further confirm the above results, an MTT cell viability assay was performed. MDA-MB-231 (1×10^4 cells/well), HEK293T (1×10^4 cells/well) and Colo205 (2×10^4 cells/well) cells were seeded in a 96-well plate, and cultured under the conditions of 37° C. and 5% carbon dioxide. After 24 hours, the cells were washed twice with DPBS and treated with DMSO or various concentrations of ND1-YL2 in Opti-MEM medium for 48 hours. Cell viability was measured by the Cyto X cell viability assay kit (LPS solution) according to the manufacturer's instructions.
# MDA-MB-231 = test: Cell viability assay; assay type: cell-based, human; conditions: MDA-MB-231, various concentrations, 48 hours
# Procedure: as §1
smiles,measurement,setting,value
CC(C)C[C@H](NC(=O)[C@H](C)NC(=O)[C@H](C)NC(=O)[C@H](C)NC(=O)[C@H](C)NC(=O)[C@H](CC(C)C)NC(=O)[C@@H](N)CCCNC(=N)N)C(=O)N[C@@H](CC(C)C)C(=O)N1CCC[C@H]1C(=O)N1CCC[C@H]1C(=O)N[C@H](C(=O)N[C@@H](CCC(=O)O)C(=O)N[C@@H](CCC(N)=O)C(=O)N[C@@H](CC(=O)O)C(=O)N[C@@H](CC(C)C)C(=O)N[C@@]1(C)CCC/C=C\CCC[C@@](C)(C(=O)N[C@@H](Cc2ccc(O)cc2)C(N)=O)NC(=O)[C@H](CC2CCCCC2)NC(=O)[C@H](CC(C)C)NC(=O)[C@H](CCCCN)NC1=O)[C@@H](C)O [ND1-YL2] (H-RLAAAALLPPTEQDL[S5]KL[Cha][S5]Y-NH2; staple (Z) 16-20),Reduction of infiltrated MDA-MB-231-RFP cells in lungs compared to vehicle samples,MDA-MB-231-RFP cells,40%
same,Molecular mass detected for SRC-1 and UBR box in the presence of compound,SRC-1/ND1-YL2/UBR box,40 kDa
same,Existing gaps maintained (cell migration),MDA-MB-231 cells,about 80%
same,Effect on cell survival,Colo205,did not significantly affect the survival
same,Effect on cell survival,MDA-MB-231,did not significantly affect the survival

# — patent publication US20230405134A1, “NOVEL PROTAC CHIMERIC COMPOUND, AND PHARMACEUTICAL COMPOSITION COMPRISING SAME FOR PREVENTING, AMELIORATING, OR TREATING DISEASES THROUGH TARGET PROTEIN DEGRADATION” (POSTECH RESEARCH AND BUSINESS DEVELOPMENT FOUNDATION, priority 2020, published 2023)
